In patent US11413360B2, “Dual mode radiotracer and—therapeutics” (priority 2017, dated 2022):
Like-named read-outs stand apart in the source and are kept apart here.

Experiments:
[1] = Octanol-water partition coefficient (log D) of radiolabelled ligands; format: physicochemical; conditions: n = 6
Procedure: Approximately 1 MBq of the labelled tracer was dissolved in 1 mL of a 1:1 mixture (by volumes) of phosphate buffered saline (PBS, pH 7.4) and n-octanol in an Eppendorf tube. After vigorous mixing of the suspension for 3 minutes at room temperature, the vial was centrifuged at 15000 g for 3 minutes (Biofuge 15, Heraus Sepatech, Osterode, Germany) and 100 μL aliquots of both layers were measured in a gamma counter. The experiment was repeated at least six times.

PSMA = molecular target: T1, PSMA (Homo sapiens, UniProt Q04609); assay: Determination of PSMA affinity (IC50), competition with ([125I]I-BA)KuE on LNCaP cells; format: binding; conditions: ([125I]I-BA)KuE 0.2 nM
T1 construct: endogenous in cells; host or cells: LNCaP cells
T1 sequence (Q04609 whole entry): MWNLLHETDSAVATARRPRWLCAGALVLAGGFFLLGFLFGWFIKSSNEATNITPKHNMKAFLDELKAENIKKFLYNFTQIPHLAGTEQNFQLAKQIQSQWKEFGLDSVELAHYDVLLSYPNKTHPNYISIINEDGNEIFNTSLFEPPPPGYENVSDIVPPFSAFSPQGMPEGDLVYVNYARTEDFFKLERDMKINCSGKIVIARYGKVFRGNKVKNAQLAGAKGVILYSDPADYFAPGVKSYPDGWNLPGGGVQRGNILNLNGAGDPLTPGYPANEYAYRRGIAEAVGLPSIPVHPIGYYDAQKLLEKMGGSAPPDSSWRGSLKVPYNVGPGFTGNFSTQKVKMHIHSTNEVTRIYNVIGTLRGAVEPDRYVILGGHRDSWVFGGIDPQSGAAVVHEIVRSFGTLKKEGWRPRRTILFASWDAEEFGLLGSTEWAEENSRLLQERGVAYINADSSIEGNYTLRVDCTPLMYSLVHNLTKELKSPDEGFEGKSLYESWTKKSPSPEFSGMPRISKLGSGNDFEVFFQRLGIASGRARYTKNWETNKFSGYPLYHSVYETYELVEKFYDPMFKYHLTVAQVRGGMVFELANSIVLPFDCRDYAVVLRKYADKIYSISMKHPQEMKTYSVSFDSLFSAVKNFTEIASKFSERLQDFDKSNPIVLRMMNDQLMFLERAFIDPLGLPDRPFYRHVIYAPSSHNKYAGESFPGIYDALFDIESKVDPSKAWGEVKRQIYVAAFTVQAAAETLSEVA
Procedure: After removal of the culture medium, the cells were treated once with 500 μL of HBSS (Hank's balanced salt solution, Biochrom, Berlin, Germany, with addition of 1% bovine serum albumin (BSA)) and left 15 min on ice for equilibration in 200 μL HBSS (1% BSA). […] Quantification of bound and free radioligand was accomplished in a γ-counter.

LNCaP cells = assay: Internalization of radiolabelled ligands into LNCaP cells; format: cell-based; conditions: 1 hour, % of reference ligand ([125I]I-BA)KuE
Procedure: Subsequent to the removal of the culture medium, the cells were washed once with 500 μL DMEM-F12 (5% BSA) and left to equilibrate for at least 15 min at 37° C. in 200 μL DMEM-F12 (5% BSA). Each well was treated with either 25 μL of either DMEM-F12 (5% BSA) or a 100 μM PMPA solution for blockade. […] The experiment was terminated by placing the 24-well plate on ice for 3 min and consecutive removal of the medium. Each well was rinsed with 250 μL HBSS and the fractions from these first two steps combined, representing the amount of free radioligand. Removal of surface bound activity was accomplished by incubation of the cells with 250 μL of ice-cold PMPA (10 μM in PBS) solution for 5 min and rinsed again with another 250 μL of ice-cold PBS. The internalized activity was determined by incubation of the cells in 250 μL 1 M NaOH and the combination with the fraction of a subsequent wash step with 250 μL 1.0 M NaOH. Each experiment (control and blockade) was performed in triplicate. Free, surface bound and internalized activity was quantified in a γ-counter. […] Data were corrected for non-specific internalization and normalized to the specific-internalization observed for the radioiodinated reference compound.

Human Serum Albumin [2] = molecular target: T2, Human Serum Albumin (Homo sapiens, UniProt P02768); assay: HSA binding on Chiralpak HSA column; format: in vitro ADME
T2 sequence (P02768 25-609): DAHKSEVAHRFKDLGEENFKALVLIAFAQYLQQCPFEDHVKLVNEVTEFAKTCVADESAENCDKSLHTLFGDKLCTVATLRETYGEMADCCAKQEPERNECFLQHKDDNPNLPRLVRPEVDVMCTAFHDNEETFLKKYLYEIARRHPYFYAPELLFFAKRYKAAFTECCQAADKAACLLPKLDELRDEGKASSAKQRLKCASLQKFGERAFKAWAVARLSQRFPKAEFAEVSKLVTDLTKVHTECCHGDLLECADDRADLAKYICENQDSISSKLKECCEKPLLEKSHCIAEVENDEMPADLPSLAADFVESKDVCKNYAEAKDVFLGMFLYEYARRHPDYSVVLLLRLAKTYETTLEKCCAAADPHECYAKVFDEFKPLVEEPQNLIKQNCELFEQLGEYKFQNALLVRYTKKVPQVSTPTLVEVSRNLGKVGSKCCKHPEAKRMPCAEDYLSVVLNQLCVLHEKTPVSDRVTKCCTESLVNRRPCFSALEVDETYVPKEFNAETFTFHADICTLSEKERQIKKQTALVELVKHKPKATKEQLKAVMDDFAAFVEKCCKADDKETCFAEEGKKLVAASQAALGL

[3] = cited from earlier work
Human Serum Albumin [4] = molecular target: T2, Human Serum Albumin; conditions: literature value of human serum albumin binding; cited from earlier work
Human Serum Albumin [5] = molecular target: T2, Human Serum Albumin; assay: Literature HSA binding of reference substances (Yamazaki et al.) for HSA-column calibration; conditions: logarithmic K of human serum albumin binding
Procedure: The mobile phase (A: NH4OAc, 50 mM in water, pH 7 and B: isopropanol) was freshly prepared for each experiment and only used for one day. The column was kept at room temperature and each run was stopped after detection of the signal to reduce the acquisition time. All substances were dissolved in a 0.5 mg/ml concentration in 50% 2-propanol and 50% 50 mM pH 6.9 ammonium acetate buffer. […] All nine reference substances (see Table 1) were injected consecutively to establish a non-linear regression with OriginPro 2016G; see FIG. 1.
HSA literature value of human serum albumin binding in [%]; Log K HAS logarithmic K of human serum albumin binding.

[6] = n-octanol/PBS, pH 7.4, 177Lu-natF-L
[7] = natLu-natF-L, 1 h, 4° C., mean ± SD, read-out: IC50
[8] = 177Lu-natF-L, 0.5 nM, 37° C., mean ± SD
[9] = pH 7.4, 68Ga-natF-L, n-octanol/PBS pH 7.4
[10] = IC50, natF-L (uncomplexed), 1 h, 4° C., mean ± SD
[11] = IC50, natGa-natF-L, 1 h, 4° C., mean ± SD
[12] = 68Ga-natF-L, 0.5 nM, 37° C., mean ± SD
[13] = pH 7.4, 18F-L, n-octanol/PBS pH 7.4
[14] = 18F-L, 0.5 nM, 37° C., mean ± SD

For CC(C)(C)[Si](F)(c1ccc(C(=O)NC(CNC(=O)CN2CCN(CC(=O)O)CCN(CC(=O)O)CCN(CC(=O)O)CC2)C(=O)NC(CCCCNC(=O)CCC(=O)NCCCC(NC(=O)CC[C@H](NC(=O)N[C@@H](CCC(=O)O)C(=O)O)C(=O)O)C(=O)O)C(=O)O)cc1)C(C)(C)C (some centres unmarked) [ligand 11], the logD [1, 6] was -3.62 ± 0.06, the IC50 (PSMA; [7]) was 4.8 ± 0.7 nM and the Internalization (LNCaP cells; [8]) was 134.5 ± 18.5%. It also gave an HSA binding (Human Serum Albumin [2]; natLu-natF-L) of 92.4%.

For CC(C)(C)[Si](F)(c1ccc(C(=O)NC[C@@H](NC(=O)CCC(C(=O)O)N2CCN(CC(=O)O)CCN(CC(=O)O)CCN(CC(=O)O)CC2)C(=O)N[C@H](CCCCNC(=O)CCCCCCC(=O)NCCCC[C@H](NC(=O)N[C@@H](CCC(=O)O)C(=O)O)C(=O)O)C(=O)O)cc1)C(C)(C)C (some centres unmarked) [ligand 5, PSMA-SIFA1], the logD [1, 9] was -2.75 ± 0.07, the IC50 (PSMA; [10]) was 6.4 ± 0.2 nM and the IC50 (PSMA; [11]) was 7.3 ± 0.2 nM. For the same compound, the Internalization (LNCaP cells; [12]) was 33.0 ± 2.1%.

Work on CC(C)(C)[Si](F)(c1ccc(C(=O)NC[C@@H](C(=O)N[C@H](CCCCNC(=O)CCCCCCC(=O)NCCCC[C@H](NC(=O)N[C@@H](CCC(=O)O)C(=O)O)C(=O)O)C(=O)O)n2cc(CNC(=O)CCP(=O)(O)CN3CCN(CP(=O)(O)CCC(=O)O)CCN(CP(=O)(O)CCC(=O)O)CC3)nn2)cc1)C(C)(C)C [ligand 6, PSMA-SIFA2] yielded a logD [1, 9] of -3 ± 0.09, an IC50 (PSMA; [10]) of 8.5 ± 1.7 nM and an IC50 (PSMA; [11]) of 10.8 ± 2.5 nM. It also gave an Internalization (LNCaP cells; [12]) of 43.0 ± 3.4%.

For CC(C)(C)[Si](F)(c1ccc(C(=O)N[C@H](CNC(=O)CCC(C(=O)O)N2CCN(CC(=O)O)CCN(CC(=O)O)CCN(CC(=O)O)CC2)C(=O)N[C@H](CCCCNC(=O)CCC(=O)NCCC[C@@H](NC(=O)CC[C@H](NC(=O)N[C@@H](CCC(=O)O)C(=O)O)C(=O)O)C(=O)O)C(=O)O)cc1)C(C)(C)C (some centres unmarked) [ligand 8, PSMA-SIFA4], the logD [1, 13] was -2.25 ± 0.07, the logD [1, 9] was -2.59 ± 0.04 and the logD ([1]; pH 7.4, 177Lu-natF-L, n-octanol/PBS pH 7.4) was -3.75 ± 0.06. The IC50 (PSMA; [10]) was 2.5 ± 0.2 nM, the IC50 (PSMA; [11]) was 3.8 ± 0.7 nM and the IC50 (PSMA; IC50, natLu-natF-L, 1 h, 4° C., mean ± SD) was 3 ± 0.2 nM. It also gave an Internalization (LNCaP cells; [14]) of 130.3 ± 5.5%, an Internalization (LNCaP cells; [12]) of 98.2 ± 12.4% and an Internalization (LNCaP cells; [8]) of 165.9 ± 8.5%. For the same compound, the HSA binding (Human Serum Albumin [2]; natGa-natF-L) was 96.5% and the HSA binding (Human Serum Albumin [2]; natLu-natF-L) was 97.7%.

For SIFA-Asn(AcNH-β-Glc)-Tyr^3-octreotate, the “log P(ow)” value [3] is listed as 1.23.

For CCCN(CCC)S(=O)(=O)c1ccc(C(=O)O)cc1 [Probenecid], the “Lit. HSA %” value (Human Serum Albumin [4]) is listed as 95.00%.

For COc1ccc(Cl)cc1C(=O)NCCc1ccc(S(=O)(=O)NC(=O)NC2CCCCC2)cc1 [Glibenclamide], the “Log K HSA” value (Human Serum Albumin [5]) is given as 1.69 and the “Lit. HSA %” value (Human Serum Albumin [4]) is given as 99.00%.

For PSMA-1007 [reference compound], the IC50 (PSMA; references, read-out: IC50) was 4.2 nM and the Internalization (LNCaP cells; references) was “PSMA-1007 118 ± 4%”.

With O=C(O)CC[C@H](NC(=O)N[C@@H](CCCCNC(=O)c1ccc(F)nc1)C(=O)O)C(=O)O [DCFPyL, reference compound] the Internalization (LNCaP cells; references) was “DCFPyL 118 ± 5%”.

In the case of CC(C)(C)[Si](F)(c1ccc(C(=O)NC[C@@H](C(=O)N[C@H](CCCCNC(=O)CCC(=O)NCCC[C@@H](NC(=O)CC[C@H](NC(=O)N[C@@H](CCC(=O)O)C(=O)O)C(=O)O)C(=O)O)C(=O)O)n2cc(CNC(=O)CCP(=O)(O)CN3CCN(CP(=O)(O)CCC(=O)O)CCN(CP(=O)(O)CCC(=O)O)CC3)nn2)cc1)C(C)(C)C [ligand 9, PSMA-SIFA5], the logD [1, 13] is reported as -2.23 ± 0.07, the logD [1, 9] is reported as -3.26 ± 0.06 and the IC50 (PSMA; [10]) is reported as 4.3 ± 0.2 nM. It also gave an IC50 (PSMA; [11]) of 4.5 ± 0.3 nM, an Internalization (LNCaP cells; [14]) of 211.6 ± 5.3% and an Internalization (LNCaP cells; [12]) of 176.9 ± 11.7%. It also gave an HSA binding (Human Serum Albumin [2]; natGa-natF-L) of 95.1%.

In the case of CC(C)(C)[Si](F)(c1ccc(C(=O)NCC(NC(=O)CN2CCN(CC(=O)O)CCN(CC(=O)O)CCN(CC(=O)O)CC2)C(=O)NC(CCCCNC(=O)CCC(=O)NCCCC(NC(=O)CC[C@H](NC(=O)N[C@@H](CCC(=O)O)C(=O)O)C(=O)O)C(=O)O)C(=O)O)cc1)C(C)(C)C (some centres unmarked) [ligand 10], the logD [1, 6] is reported as -3.59 ± 0.05, the IC50 (PSMA; [7]) is reported as 2.8 ± 0.7 nM and the Internalization (LNCaP cells; [8]) is reported as 184.1 ± 16%. The HSA binding (Human Serum Albumin [2]; natLu-natF-L) was 94.0%.

For “SIFA-Asn(AcNH-β-Glc)-PEG-Tyr^3-octreotate”, the “log P(ow)” value [3] is listed as 0.96.

For Nc1ccccc1 [Aniline], the “Log K HSA” value (Human Serum Albumin [5]) is listed as −0.79 and the “Lit. HSA %” value (Human Serum Albumin [4]) is listed as 14.06%.

In the case of Oc1ccccc1 [Phenol], the “Log K HSA” value (Human Serum Albumin [5]) is listed as −0.59 and the “Lit. HSA %” value (Human Serum Albumin [4]) is listed as 20.69%.

For O=C(O)c1ccccc1 [Benzoic Acid], the “Lit. HSA %” value (Human Serum Albumin [4]) is given as 34.27%.
